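A five-concentration, 48-hour dose response in 96-well plates underlies each endpoint, interpolated linearly between surrounding concentrations. TGI: concentration producing complete growth inhibition.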
Tests used:
Test in all cases: inhibition of tumour cell growth, NCI panel, 48 h
OVCAR-3 ovarian = tested on: OVCAR-3 ovarian
ACHN renal = tested on: ACHN renal
HL-60(TB) leukemia = tested on: HL-60(TB) leukemia
NCI-H460 lung = tested on: NCI-H460 lung
SK-MEL-28 melanoma = tested on: SK-MEL-28 melanoma
CAKI-1 renal = tested on: CAKI-1 renal
SNB-78 CNS = tested on: SNB-78 CNS
MOLT-4 leukemia = tested on: MOLT-4 leukemia
DLD-1 colon = tested on: DLD-1 colon
HT29 colon = tested on: HT29 colon
TK-10 renal = tested on: TK-10 renal
NCI-H23 lung = tested on: NCI-H23 lung
OVCAR-8 ovarian = tested on: OVCAR-8 ovarian
NCI-H226 lung = tested on: NCI-H226 lung
XF 498 CNS = tested on: XF 498 CNS
KM20L2 colon = tested on: KM20L2 colon
HCT-15 colon = tested on: HCT-15 colon
OVCAR-4 ovarian = tested on: OVCAR-4 ovarian
SNB-75 CNS = tested on: SNB-75 CNS
M14 melanoma = tested on: M14 melanoma
SR leukemia = tested on: SR leukemia
HCC-2998 colon = tested on: HCC-2998 colon
HCT-116 colon = tested on: HCT-116 colon
SNB-19 CNS = tested on: SNB-19 CNS
DMS 273 small cell lung = tested on: DMS 273 small cell lung
HOP-62 NSCLC = tested on: HOP-62 NSCLC
LXFL 529 NSCLC = tested on: LXFL 529 NSCLC
HOP-18 NSCLC = tested on: HOP-18 NSCLC
IGROV1 ovarian = tested on: IGROV1 ovarian
UACC-257 melanoma = tested on: UACC-257 melanoma
CCRF-CEM leukemia = tested on: CCRF-CEM leukemia
SF-268 CNS = tested on: SF-268 CNS
SW-620 colon = tested on: SW-620 colon
RXF 393 renal = tested on: RXF 393 renal
KM12 colon = tested on: KM12 colon
SF-295 CNS = tested on: SF-295 CNS
A549 NSCLC = tested on: A549 NSCLC
LOX IMVI melanoma = tested on: LOX IMVI melanoma
EKVX NSCLC = tested on: EKVX NSCLC
MALME-3M melanoma = tested on: MALME-3M melanoma
SK-OV-3 ovarian = tested on: SK-OV-3 ovarian
UACC-62 melanoma = tested on: UACC-62 melanoma
786-0 renal = tested on: 786-0 renal
OVCAR-5 ovarian = tested on: OVCAR-5 ovarian
UO-31 renal = tested on: UO-31 renal
NCI-H522 lung = tested on: NCI-H522 lung
COLO 205 colon = tested on: COLO 205 colon
RPMI-8226 leukemia = tested on: RPMI-8226 leukemia
SN12C renal = tested on: SN12C renal
U251 CNS = tested on: U251 CNS
M19-MEL melanoma = tested on: M19-MEL melanoma
K-562 leukemia = tested on: K-562 leukemia
SK-MEL-2 melanoma = tested on: SK-MEL-2 melanoma
DMS 114 small cell lung = tested on: DMS 114 small cell lung
A498 renal = tested on: A498 renal
HOP-92 NSCLC = tested on: HOP-92 NSCLC
SF-539 CNS = tested on: SF-539 CNS
SK-MEL-5 melanoma = tested on: SK-MEL-5 melanoma

CC1CCCc2c1c1ccc3c(O)cccc3c1oc2=O (stereo not given)
TGI (OVCAR-3 ovarian): > 100 µM | TGI (ACHN renal): > 100 µM | TGI (HL-60(TB) leukemia): > 100 µM | TGI (NCI-H460 lung): > 100 µM | TGI (SK-MEL-28 melanoma): > 100 µM | TGI (CAKI-1 renal): > 100 µM | TGI (SNB-78 CNS): > 100 µM | TGI (MOLT-4 leukemia): > 100 µM | TGI (DLD-1 colon): > 100 µM | TGI (HT29 colon): > 100 µM | TGI (TK-10 renal): 71.3 µM | TGI (NCI-H23 lung): > 100 µM | TGI (OVCAR-8 ovarian): > 100 µM | TGI (NCI-H226 lung): > 100 µM | TGI (XF 498 CNS): > 100 µM | TGI (KM20L2 colon): > 100 µM | TGI (HCT-15 colon): > 100 µM | TGI (OVCAR-4 ovarian): 91.3 µM | TGI (SNB-75 CNS): 21.8 µM | TGI (M14 melanoma): > 100 µM | TGI (SR leukemia): > 100 µM | TGI (HCC-2998 colon): > 100 µM | TGI (HCT-116 colon): > 100 µM | TGI (SNB-19 CNS): > 100 µM | TGI (DMS 273 small cell lung): > 100 µM | TGI (HOP-62 NSCLC): 54.1 µM | TGI (LXFL 529 NSCLC): > 100 µM | TGI (HOP-18 NSCLC): > 100 µM | TGI (IGROV1 ovarian): > 100 µM | TGI (UACC-257 melanoma): > 100 µM | TGI (CCRF-CEM leukemia): > 100 µM | TGI (SF-268 CNS): 70.8 µM | TGI (SW-620 colon): > 100 µM | TGI (RXF 393 renal): 73.2 µM | TGI (KM12 colon): > 100 µM | TGI (SF-295 CNS): 33.8 µM | TGI (A549 NSCLC): > 100 µM | TGI (LOX IMVI melanoma): > 100 µM | TGI (EKVX NSCLC): 85.9 µM | TGI (MALME-3M melanoma): > 100 µM | TGI (SK-OV-3 ovarian): 61.6 µM | TGI (UACC-62 melanoma): > 100 µM | TGI (786-0 renal): 64.7 µM | TGI (OVCAR-5 ovarian): > 100 µM | TGI (UO-31 renal): > 100 µM | TGI (NCI-H522 lung): 55.8 µM | TGI (COLO 205 colon): > 100 µM | TGI (RPMI-8226 leukemia): > 100 µM | TGI (SN12C renal): > 100 µM | TGI (U251 CNS): > 100 µM | TGI (M19-MEL melanoma): > 100 µM | TGI (K-562 leukemia): > 100 µM | TGI (SK-MEL-2 melanoma): > 100 µM | TGI (DMS 114 small cell lung): 76.3 µM

O=C(NC1C2CC3CC(C2)CC1C3)/C(Cl)=C1/Sc2ccccc2NC1=O (stereo not given)
TGI (OVCAR-3 ovarian): > 100 µM | TGI (ACHN renal): > 100 µM | TGI (HL-60(TB) leukemia): > 100 µM | TGI (NCI-H460 lung): > 100 µM | TGI (SK-MEL-28 melanoma): > 100 µM | TGI (A498 renal): > 100 µM | TGI (CAKI-1 renal): > 100 µM | TGI (SNB-78 CNS): > 100 µM | TGI (MOLT-4 leukemia): > 100 µM | TGI (DLD-1 colon): > 100 µM | TGI (HT29 colon): > 100 µM | TGI (TK-10 renal): > 100 µM | TGI (HOP-92 NSCLC): > 100 µM | TGI (NCI-H23 lung): > 100 µM | TGI (OVCAR-8 ovarian): > 100 µM | TGI (NCI-H226 lung): > 100 µM | TGI (XF 498 CNS): > 100 µM | TGI (KM20L2 colon): > 100 µM | TGI (HCT-15 colon): > 100 µM | TGI (OVCAR-4 ovarian): > 100 µM | TGI (SNB-75 CNS): > 100 µM | TGI (M14 melanoma): > 100 µM | TGI (SR leukemia): > 100 µM | TGI (HCC-2998 colon): > 100 µM | TGI (HCT-116 colon): > 100 µM | TGI (SNB-19 CNS): > 100 µM | TGI (DMS 273 small cell lung): > 100 µM | TGI (HOP-62 NSCLC): > 100 µM | TGI (LXFL 529 NSCLC): > 100 µM | TGI (HOP-18 NSCLC): > 100 µM | TGI (IGROV1 ovarian): > 100 µM | TGI (UACC-257 melanoma): > 100 µM | TGI (CCRF-CEM leukemia): > 100 µM | TGI (SF-268 CNS): > 100 µM | TGI (SW-620 colon): > 100 µM | TGI (RXF 393 renal): > 100 µM | TGI (SF-539 CNS): > 100 µM | TGI (KM12 colon): > 100 µM | TGI (SF-295 CNS): > 100 µM | TGI (SK-MEL-5 melanoma): > 100 µM | TGI (A549 NSCLC): > 100 µM | TGI (LOX IMVI melanoma): > 100 µM | TGI (EKVX NSCLC): > 100 µM | TGI (MALME-3M melanoma): > 100 µM | TGI (UACC-62 melanoma): > 100 µM | TGI (786-0 renal): > 100 µM | TGI (OVCAR-5 ovarian): > 100 µM | TGI (UO-31 renal): > 100 µM | TGI (NCI-H522 lung): > 100 µM | TGI (COLO 205 colon): > 100 µM | TGI (SN12C renal): > 100 µM | TGI (U251 CNS): > 100 µM | TGI (M19-MEL melanoma): > 100 µM | TGI (K-562 leukemia): > 100 µM | TGI (DMS 114 small cell lung): > 100 µM

CS/C(c1ccccc1)=[N+](\[O-])Cc1ccccc1
TGI (OVCAR-3 ovarian): > 100 µM | TGI (ACHN renal): > 100 µM | TGI (HL-60(TB) leukemia): > 100 µM | TGI (NCI-H460 lung): > 100 µM | TGI (SK-MEL-28 melanoma): > 100 µM | TGI (A498 renal): > 100 µM | TGI (CAKI-1 renal): > 100 µM | TGI (SNB-78 CNS): > 100 µM | TGI (MOLT-4 leukemia): > 100 µM | TGI (DLD-1 colon): > 100 µM | TGI (HT29 colon): > 100 µM | TGI (TK-10 renal): > 100 µM | TGI (HOP-92 NSCLC): > 100 µM | TGI (NCI-H23 lung): > 100 µM | TGI (OVCAR-8 ovarian): > 100 µM | TGI (NCI-H226 lung): > 100 µM | TGI (XF 498 CNS): > 100 µM | TGI (KM20L2 colon): > 100 µM | TGI (HCT-15 colon): 32.9 µM | TGI (OVCAR-4 ovarian): > 100 µM | TGI (SNB-75 CNS): > 100 µM | TGI (M14 melanoma): > 100 µM | TGI (SR leukemia): 43.3 µM | TGI (HCC-2998 colon): > 100 µM | TGI (HCT-116 colon): > 100 µM | TGI (SNB-19 CNS): > 100 µM | TGI (HOP-62 NSCLC): > 100 µM | TGI (LXFL 529 NSCLC): > 100 µM | TGI (HOP-18 NSCLC): > 100 µM | TGI (IGROV1 ovarian): > 100 µM | TGI (UACC-257 melanoma): > 100 µM | TGI (CCRF-CEM leukemia): > 100 µM | TGI (SF-268 CNS): > 100 µM | TGI (RXF 393 renal): > 100 µM | TGI (SF-539 CNS): > 100 µM | TGI (KM12 colon): > 100 µM | TGI (SF-295 CNS): > 100 µM | TGI (SK-MEL-5 melanoma): > 100 µM | TGI (A549 NSCLC): > 100 µM | TGI (LOX IMVI melanoma): 31.6 µM | TGI (EKVX NSCLC): > 100 µM | TGI (MALME-3M melanoma): > 100 µM | TGI (SK-OV-3 ovarian): > 100 µM | TGI (UACC-62 melanoma): > 100 µM | TGI (786-0 renal): > 100 µM | TGI (OVCAR-5 ovarian): > 100 µM | TGI (UO-31 renal): > 100 µM | TGI (NCI-H522 lung): > 100 µM | TGI (COLO 205 colon): > 100 µM | TGI (RPMI-8226 leukemia): 55.3 µM | TGI (SN12C renal): > 100 µM | TGI (U251 CNS): > 100 µM | TGI (M19-MEL melanoma): > 100 µM | TGI (K-562 leukemia): > 100 µM | TGI (SK-MEL-2 melanoma): > 100 µM | TGI (DMS 114 small cell lung): > 100 µM

Source: PubChem BioAssay (NCI)
